From PubChem BioAssay (NCI)
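Tested at 5 concentrations; 48 h exposure; 96-well plates; endpoints linearly interpolated, else capped at highest concentration. Abbreviation: GI50, concentration required for 50% inhibition of growth. TGI: total growth inhibition.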

Assays:
Assay in all cases: NCI tumour cell line growth inhibition, 48 h
786-0 renal = system: 786-0 renal
A498 renal = system: A498 renal
A549 NSCLC = system: A549 NSCLC
ACHN renal = system: ACHN renal
BT-549 breast = system: BT-549 breast
CAKI-1 renal = system: CAKI-1 renal
CCRF-CEM leukemia = system: CCRF-CEM leukemia
COLO 205 colon = system: COLO 205 colon
DU-145 prostate = system: DU-145 prostate
EKVX NSCLC = system: EKVX NSCLC
HCC-2998 colon = system: HCC-2998 colon
HCT-116 colon = system: HCT-116 colon
HCT-15 colon = system: HCT-15 colon
HL-60(TB) leukemia = system: HL-60(TB) leukemia
HOP-62 NSCLC = system: HOP-62 NSCLC
HOP-92 NSCLC = system: HOP-92 NSCLC
HS 578T breast = system: HS 578T breast
HT29 colon = system: HT29 colon
IGROV1 ovarian = system: IGROV1 ovarian
K-562 leukemia = system: K-562 leukemia
KM12 colon = system: KM12 colon
LOX IMVI melanoma = system: LOX IMVI melanoma
M14 melanoma = system: M14 melanoma
MALME-3M melanoma = system: MALME-3M melanoma
MCF7 breast = system: MCF7 breast
MDA-MB-231 breast = system: MDA-MB-231 breast
MDA-MB-435 = system: MDA-MB-435
MOLT-4 leukemia = system: MOLT-4 leukemia
NCI-H226 lung = system: NCI-H226 lung
NCI-H23 lung = system: NCI-H23 lung
NCI-H460 lung = system: NCI-H460 lung
NCI-H522 lung = system: NCI-H522 lung
NCI/ADR-RES ovarian = system: NCI/ADR-RES ovarian
OVCAR-3 ovarian = system: OVCAR-3 ovarian
OVCAR-4 ovarian = system: OVCAR-4 ovarian
OVCAR-5 ovarian = system: OVCAR-5 ovarian
OVCAR-8 ovarian = system: OVCAR-8 ovarian
RPMI-8226 leukemia = system: RPMI-8226 leukemia
RXF 393 renal = system: RXF 393 renal
SF-268 CNS = system: SF-268 CNS
SF-295 CNS = system: SF-295 CNS
SF-539 CNS = system: SF-539 CNS
SK-MEL-2 melanoma = system: SK-MEL-2 melanoma
SK-MEL-28 melanoma = system: SK-MEL-28 melanoma
SK-MEL-5 melanoma = system: SK-MEL-5 melanoma
SK-OV-3 ovarian = system: SK-OV-3 ovarian
SN12C renal = system: SN12C renal
SNB-19 CNS = system: SNB-19 CNS
SNB-75 CNS = system: SNB-75 CNS
SR leukemia = system: SR leukemia
SW-620 colon = system: SW-620 colon
T-47D breast = system: T-47D breast
TK-10 renal = system: TK-10 renal
U251 CNS = system: U251 CNS
UACC-257 melanoma = system: UACC-257 melanoma
UACC-62 melanoma = system: UACC-62 melanoma
UO-31 renal = system: UO-31 renal

## CN1CCN(c2ccc(NC(=O)c3nc4ccc5[nH]ncc5c4c4c3CCCC4)cc2C(F)(F)F)CC1
786-0 renal
  GI50: 841 nM
  TGI: 1520 nM
A498 renal
  GI50: > 50000 nM
  TGI: > 50000 nM
A549 NSCLC
  GI50: 1120 nM
  TGI: 3050 nM
ACHN renal
  GI50: 857 nM
  TGI: 1550 nM
BT-549 breast
  GI50: 6070 nM
  TGI: 12400 nM
CAKI-1 renal
  GI50: 1520 nM
  TGI: 7720 nM
CCRF-CEM leukemia
  GI50: 1070 nM
  TGI: 3330 nM
COLO 205 colon
  GI50: 840 nM
  TGI: 1680 nM
DU-145 prostate
  GI50: 1030 nM
  TGI: 2150 nM
EKVX NSCLC
  GI50: 1440 nM
  TGI: 8620 nM
HCC-2998 colon
  GI50: 1100 nM
  TGI: 2990 nM
HCT-116 colon
  GI50: 814 nM
  TGI: 1500 nM
HCT-15 colon
  GI50: 845 nM
  TGI: 1780 nM
HL-60(TB) leukemia
  GI50: 969 nM
  TGI: 2100 nM
HOP-62 NSCLC
  GI50: 918 nM
  TGI: 1890 nM
HOP-92 NSCLC
  GI50: 658 nM
  TGI: 1340 nM
HS 578T breast
  GI50: 5990 nM
  TGI: 19400 nM
HT29 colon
  GI50: 1020 nM
  TGI: 3060 nM
IGROV1 ovarian
  GI50: 821 nM
  TGI: 1730 nM
K-562 leukemia
  GI50: 968 nM
  TGI: 2110 nM
KM12 colon
  GI50: 1470 nM
  TGI: 5270 nM
LOX IMVI melanoma
  GI50: 836 nM
  TGI: 1550 nM
M14 melanoma
  GI50: 861 nM
  TGI: 1710 nM
MALME-3M melanoma
  GI50: 760 nM
  TGI: 1640 nM
MCF7 breast
  GI50: 964 nM
  TGI: 2320 nM
MDA-MB-231 breast
  GI50: 941 nM
  TGI: 1720 nM
MDA-MB-435
  GI50: 899 nM
  TGI: 1740 nM
MOLT-4 leukemia
  GI50: 1090 nM
  TGI: 3080 nM
NCI-H226 lung
  GI50: 4360 nM
  TGI: 17700 nM
NCI-H23 lung
  GI50: 1500 nM
  TGI: 6710 nM
NCI-H460 lung
  GI50: 956 nM
  TGI: 1830 nM
NCI-H522 lung
  GI50: 856 nM
  TGI: 1880 nM
NCI/ADR-RES ovarian
  GI50: 1270 nM
  TGI: 4210 nM
OVCAR-3 ovarian
  GI50: 939 nM
  TGI: 1810 nM
OVCAR-4 ovarian
  GI50: 1450 nM
  TGI: 6810 nM
OVCAR-5 ovarian
  GI50: 1500 nM
  TGI: 8390 nM
OVCAR-8 ovarian
  GI50: 921 nM
  TGI: 1910 nM
RPMI-8226 leukemia
  GI50: 966 nM
  TGI: 2300 nM
RXF 393 renal
  GI50: 798 nM
  TGI: 1550 nM
SF-268 CNS
  GI50: 3890 nM
  TGI: 19300 nM
SF-295 CNS
  GI50: 1390 nM
  TGI: 4160 nM
SF-539 CNS
  GI50: 851 nM
  TGI: 1610 nM
SK-MEL-2 melanoma
  GI50: 7330 nM
  TGI: 19100 nM
SK-MEL-28 melanoma
  GI50: 941 nM
  TGI: 1710 nM
SK-MEL-5 melanoma
  GI50: 1530 nM
  TGI: 5230 nM
SK-OV-3 ovarian
  GI50: 1480 nM
  TGI: 5250 nM
SN12C renal
  GI50: 895 nM
  TGI: 1650 nM
SNB-19 CNS
  GI50: 1390 nM
  TGI: 4580 nM
SNB-75 CNS
  GI50: 5500 nM
  TGI: 12100 nM
SR leukemia
  GI50: 900 nM
  TGI: 2810 nM
SW-620 colon
  GI50: 947 nM
  TGI: 2200 nM
T-47D breast
  GI50: 835 nM
  TGI: 1740 nM
TK-10 renal
  GI50: 1040 nM
  TGI: 2200 nM
U251 CNS
  GI50: 926 nM
  TGI: 1770 nM
UACC-257 melanoma
  GI50: 902 nM
  TGI: 1880 nM
UACC-62 melanoma
  GI50: 973 nM
  TGI: 1830 nM
UO-31 renal
  GI50: 843 nM
  TGI: 1650 nM
